The Deep4Chem optical property database

Test: solvent given as SMILES

## C(=C\c1ccc(/C=C/c2ccc(N(c3ccccc3)c3ccccc3)cc2)c2nsnc12)/c1ccc(N(c2ccccc2)c2ccccc2)cc1
In C1CCOC1
  absorption maximum: 512 nm
In CCOC(C)=O
  absorption maximum: 502 nm
In CN(C)C=O
  absorption maximum: 513 nm
In Cc1ccccc1
  absorption maximum: 521 nm
In ClC(Cl)Cl
  absorption maximum: 514 nm
In ClCCl
  absorption maximum: 512 nm

## CCOC(=O)c1c2c3c(ccc(C)c3c3cc4c(cc13)[Si](C)(C)O[Si]4(C)C)N(C)C2=O
In CC#N
  absorption maximum: 380 nm

## Cc1ccc(N(CC(=O)[O-])CC(=O)[O-])cc1OCCOc1cc(-c2cc3ccc(C(=O)[O-])cc3[nH]2)ccc1N(CC(=O)[O-])CC(=O)[O-]
In O
  absorption maximum: 349 nm

## C(#Cc1cccs1)C(C#Cc1cccs1)=Cc1ccc(C=C(C#Cc2cccs2)C#Cc2cccs2)s1
In ClC(Cl)Cl
  absorption maximum: 486 nm

## COCCOCCOCCOCC(COCCOCCOCCOC)Oc1cc(/C=C/c2ccc(/C=C(\C#N)c3ccccn3)cc2)c(OC(COCCOCCOCCOC)COCCOCCOCCOC)cc1/C=C/c1ccc(/C=C(\C#N)c2ccccn2)cc1
In ClCCl
  absorption maximum: 443 nm

## CC[N+]1(CC)CN2C(=N1)C(C(=O)O)=Cc1ccc(Cl)cc12
In O
  absorption maximum: 367 nm

## C(#Cc1cc2ccc3cccc4ccc(c1)c2c34)c1ccccc1
In Cc1ccccc1
  absorption maximum: 390 nm

## COc1ccccc1-c1nc(-c2ccc(C(F)(F)F)cc2)n(-c2ccc(C)cc2)c1-c1ccccc1OC
In CC(C)O
  absorption maximum: 285 nm
In CCCCCC
  absorption maximum: 285 nm
In CO
  absorption maximum: 284 nm
In CS(C)=O
  absorption maximum: 286 nm
In ClCCl
  absorption maximum: 286 nm

## Cc1ccc(C#Cc2c3cc4ccccc4cc3c(C#C[Si](C(C)C)(C(C)C)C(C)C)c3cc4ccccc4cc23)cc1
In ClCCl
  absorption maximum: 654 nm

## COc1ccc(-c2c3cc4ccccc4cc3c(-c3ccc(OC)cc3)c3cc4sc(C)cc4cc23)cc1
In ClCCl
  absorption maximum: 550 nm

## CCc1c(C)c2n(c1C)[B-](F)(F)[N+]1=C(NCc3ccc(OC)cc3)C(SC#N)=CC1=C2C
In CC#N
  absorption maximum: 562 nm
In CCCCCC
  absorption maximum: 572 nm
In CCOC(C)=O
  absorption maximum: 565 nm
In CO
  absorption maximum: 562 nm
In ClCCl
  absorption maximum: 568 nm

## CN(C)c1ccc(-c2nc3nc4ccccc4nc3n2-c2ccccc2)cc1
In CC#N
  absorption maximum: 411 nm

## CCC1=C(C)C2=Cc3c4ccccc4c4n3[B-](c3ccc5ccc6cccc7ccc3c5c67)(Oc3ccccc3-4)[N+]2=C1C (stereo not given)
In CC#N
  absorption maximum: 622 nm
In CCCCCC
  absorption maximum: 627 nm
In Cc1ccccc1
  absorption maximum: 630 nm
In ClCCl
  absorption maximum: 628 nm

## c1ccc(-n2c(-c3ccc(-n4c5ccccc5c5ccccc54)cc3)nc3nccnc32)cc1
In CC#N
  absorption maximum: 339 nm

## COc1ccc(-c2cc(-c3ccccc3)nn2C)cc1
In ClCCl
  absorption maximum: 257 nm

## CC(C)[Si](C#Cc1c2ccccc2c(C#C[Si](C(C)C)(C(C)C)C(C)C)c2nc3c(ccc4ccccc43)nc12)(C(C)C)C(C)C
In CCCCCC
  absorption maximum: 544 nm

## COc1ccc(N(c2ccc(OC)cc2)c2ccc(-c3ccc4c(c3)C(=O)c3ccccc3C4=O)cc2)cc1
In C1CCOC1
  absorption maximum: 477 nm
In CCCCCC
  absorption maximum: 468 nm
In CCOC(C)=O
  absorption maximum: 472 nm
In CCOCC
  absorption maximum: 472 nm
In Cc1ccccc1
  absorption maximum: 481 nm
In ClC(Cl)(Cl)Cl
  absorption maximum: 483 nm
In ClCCl
  absorption maximum: 485 nm

## c1ccc2c(c1)Sc1ccccc1N2c1ccc2c(c1)C1(CC1)c1cc(N3c4ccccc4Sc4ccccc43)ccc1-2
In Cc1ccccc1
  absorption maximum: 307 nm

## CCN(CC)c1ccc2c(c1)oc(=O)c1c(C)nc3c(c(-c4ccccc4)nn3-c3ccccc3)c12
In ClCCl
  absorption maximum: 410 nm

## COc1ccc2c(c1)[nH]c1c3[nH]c4cc(OC)ccc4c3c3nsnc3c21
In CN(C)C=O
  absorption maximum: 436 nm
In Cc1ccccc1
  absorption maximum: 425 nm
In ClCCl
  absorption maximum: 430 nm

## COc1cnc(-c2cc[n+](C3=C(F)C(F)(F)C(F)(F)[C-]3F)cc2)s1
In CC#N
  absorption maximum: 407 nm
In CC(C)=O
  absorption maximum: 408 nm
In CCO
  absorption maximum: 409 nm
In CN(C)C=O
  absorption maximum: 410 nm
In CO
  absorption maximum: 407 nm
In CS(C)=O
  absorption maximum: 410 nm
In ClC(Cl)Cl
  absorption maximum: 433 nm
In ClCCl
  absorption maximum: 430 nm

## COc1ccc(-c2csc(-c3ccncc3)n2)cc1
In CC#N
  absorption maximum: 394 nm
In CCO
  absorption maximum: 340 nm
In CN(C)C=O
  absorption maximum: 340 nm
In CS(C)=O
  absorption maximum: 341 nm
In Cc1ccccc1
  absorption maximum: 340 nm
In ClCCl
  absorption maximum: 401 nm

## CC(C)[Si]1(C(C)C)c2cc(C#N)ccc2-c2ccc(N(C)C)cc21
In C1CCCCC1
  absorption maximum: 357 nm
In CC#N
  absorption maximum: 360 nm
In CCO
  absorption maximum: 360 nm
In CCOCC
  absorption maximum: 358 nm
In CS(C)=O
  absorption maximum: 375 nm
In ClCCl
  absorption maximum: 368 nm
In c1ccccc1
  absorption maximum: 360 nm

## CC1(C)c2ccccc2N(c2ccc3nc4c5ccc(N6c7ccccc7C(C)(C)c7ccccc76)cc5c5cc(N6c7ccccc7C(C)(C)c7ccccc76)ccc5c4nc3c2)c2ccccc21
In Cc1ccccc1
  absorption maximum: 456 nm

## Cc1cc(C)c(B(c2c(C)cc(C)cc2C)c2c(C)cc(-n3c4ccccc4c4cc(N(c5ccccc5)c5ccccc5)ccc43)cc2C)c(C)c1
In Cc1ccccc1
  absorption maximum: 375 nm

## CC1=C2C=CC(c3ccccc3)=[N+]2[B-](F)(F)n2c1ccc2-c1ccccc1
In ClCCl
  absorption maximum: 544 nm

## CCN(CC)c1ccc2cc(-c3ccc(S(C)(=O)=O)cc3)oc(=O)c2c1
In CC(C)=O
  absorption maximum: 375 nm
In CCCCCC
  absorption maximum: 373 nm
In CCCCO
  absorption maximum: 378 nm
In CCCO
  absorption maximum: 378 nm
In CCO
  absorption maximum: 376 nm
In CCOC(C)=O
  absorption maximum: 374 nm
In CN(C)C=O
  absorption maximum: 379 nm
In CO
  absorption maximum: 376 nm
In ClC(Cl)Cl
  absorption maximum: 383 nm

## CCn1c2ccc(S(=O)(=O)O)cc2c(=O)c2cc3c(cc21)c(=O)c1cc(S(=O)(=O)O)ccc1n3CCCCCC(=O)O
In O
  absorption maximum: 536 nm

## COc1ccc2c(C=C(C#N)C#N)cc3ccc4cc(C=C(C#N)C#N)c5ccc(OC)cc5c4c3c2c1
In ClC(Cl)Cl
  absorption maximum: 456 nm

## CC(C)(C)c1ccc2c(c1)c1cc(C(C)(C)C)ccc1n2-c1cc(C(=O)c2ccncc2)cc(-n2c3ccc(C(C)(C)C)cc3c3cc(C(C)(C)C)ccc32)c1
In Cc1ccccc1
  absorption maximum: 396 nm

## N#Cc1c(N2CCCCC2)cc(-c2ccccc2)c2c1C(=O)c1ccccc1-2
In C1CCOC1
  absorption maximum: 348 nm

## FC(F)(F)C(F)(F)C(F)(F)C(F)(F)C(F)(F)C(F)(F)C(F)(F)C(F)(F)CCOc1nnc(Cl)nn1
In ClCCl
  absorption maximum: 519 nm
In OCC(F)(F)F
  absorption maximum: 509 nm

## O=C(O)CCCCCNC(=O)c1cccc2c(=O)c3ccccc3[nH]c12
In O
  absorption maximum: 409 nm

## CCCCOc1ccc2cc(-c3ccc(C)cc3)c(=O)oc2c1
In C1CCOC1
  absorption maximum: 343 nm
In CCCCCC
  absorption maximum: 338 nm
In CCO
  absorption maximum: 344 nm
In CS(C)=O
  absorption maximum: 346 nm

## COc1ccc(-c2ccc(OC)cc2)cc1
In C1CCCCC1
  absorption maximum: 271.81 nm

## COc1ccc(C#Cc2ccc(C#N)cc2)cc1
In C1COCCO1
  absorption maximum: 330 nm
In CC#N
  absorption maximum: 324 nm
In CCCCCC
  absorption maximum: 331 nm
In CCCCCCC
  absorption maximum: 332 nm
In CCCO
  absorption maximum: 328 nm
In CCOC(C)=O
  absorption maximum: 328 nm
In CS(C)=O
  absorption maximum: 329 nm
In ClC(Cl)Cl
  absorption maximum: 332 nm
In ClCCl
  absorption maximum: 330 nm

## CCOC(=O)C1(O)c2cc3ccc4cccc5ccc(c2C(=O)N1C(C)(C)C)c3c45 (stereo not given)
In ClC(Cl)Cl
  absorption maximum: 385 nm

## Cc1ccc(-n2c3ccccc3c3cc(-c4ccc5[n+](c4)[B-](F)(F)n4c-5nc5c6ccccc6c6ccccc6c54)ccc32)cc1
In ClC(Cl)Cl
  absorption maximum: 444 nm

## COCCC1=Cc2nc1ccc1[nH]c(cc1CCOC)c1nc(ccc3[nH]c2cc3CCO)C(CCOC)=C1
In Cc1ccccc1
  absorption maximum: 637 nm

## CC(C)(C)[Si](C)(C)C#CC1=CC2=c3cc(C#C[Si](C)(C)C(C)(C)C)c4nc(C(F)(F)C(F)(F)C(F)(F)F)nc5c(C#C[Si](C)(C)C(C)(C)C)cc(c3c54)C3=CC(C#C[Si](C)(C)C(C)(C)C)=C4N=C(C(F)(F)C(F)(F)C(F)(F)F)N=C1C4C32 (stereo not given)
In C1CCOC1
  absorption maximum: 513 nm

## CCC1=C(C)C2=Cc3c4ccccc4c4n3[B-](C)(Oc3ccccc3-4)[N+]2=C1C (stereo not given)
In CC#N
  absorption maximum: 616 nm
In CCCCCC
  absorption maximum: 621 nm
In Cc1ccccc1
  absorption maximum: 625 nm
In ClCCl
  absorption maximum: 622 nm

## NC(=O)CC[C@H](/[NH+]=C\C=C1\C=C(C(=O)O)N[C@H](C(=O)O)C1)C(=O)O
In CCO
  absorption maximum: 474 nm
In CO
  absorption maximum: 471 nm
In O
  absorption maximum: 475 nm
In OCC(F)(F)F
  absorption maximum: 473 nm
In OCCO
  absorption maximum: 478 nm

## CCC1(CC)c2ccccc2-c2c1c1c(c3c2C(CC)(CC)c2cc(B(c4c(C)cc(C)cc4C)c4c(C)cc(C)cc4C)ccc2-3)C(CC)(CC)c2cc(B(c3c(C)cc(C)cc3C)c3c(C)cc(C)cc3C)ccc2-1
In C1CCOC1
  absorption maximum: 364 nm
In CC#N
  absorption maximum: 359 nm
In CC(C)=O
  absorption maximum: 360 nm
In CCCCCC
  absorption maximum: 362 nm
In ClC(Cl)Cl
  absorption maximum: 362 nm

## CCCN1c2ccccc2Sc2cc(/C=C\c3cc(=O)oc4cc(NC(=O)OCC)ccc34)ccc21
In ClC(Cl)Cl
  absorption maximum: 422 nm

## CC(C)(C)c1ccc(N(c2ccc(S(=O)(=O)c3ccc(S(=O)(=O)c4ccc(N(c5ccc(C(C)(C)C)cc5)c5ccccc5C(C)(C)C)cc4)cc3)cc2)c2ccccc2C(C)(C)C)cc1
In Cc1ccccc1
  absorption maximum: 351 nm

## CCN(CC)c1ccc2cc(-c3ccc(-c4ccc5c6ccccc6c6c7cc(-c8ccc(-c9cc%10ccc(N(CC)CC)cc%10oc9=O)cc8)ccc7c7ccccc7c6c5c4)cc3)c(=O)oc2c1
In ClC(Cl)Cl
  absorption maximum: 412 nm

## Cc1c(C)n2c(COC(=O)CNC(=O)OC(C)(C)C)c(C)c(=O)n2c1=O
In CCO
  absorption maximum: 374 nm

## O=C1C=C(Nc2cccc(F)c2F)C(=O)c2ccccc21
In CCCCCC
  absorption maximum: 428 nm
In CO
  absorption maximum: 439 nm

## Nc1ccc2ccc([O-])cc2c1
In O
  absorption maximum: 342 nm

## Fc1ccc(C2=C(c3ccc(F)cc3)c3cccc4c3c(cc3nc5ccccc5nc34)O2)cc1
In ClCCl
  absorption maximum: 490 nm

## O=C1/C(=C\c2ccc(N(c3ccccc3)c3ccccc3)cc2)S(=O)(=O)c2ccccc21
In C1CCOC1
  absorption maximum: 473 nm
In C1COCCO1
  absorption maximum: 475 nm
In CC#N
  absorption maximum: 475 nm
In CC(C)=O
  absorption maximum: 472 nm
In CCOC(C)=O
  absorption maximum: 471 nm
In CN(C)C=O
  absorption maximum: 478 nm
In CO
  absorption maximum: 477 nm
In CS(C)=O
  absorption maximum: 482 nm
In Cc1ccccc1
  absorption maximum: 485 nm
In ClC(Cl)Cl
  absorption maximum: 491 nm
In ClCCl
  absorption maximum: 485 nm
